Source: patent publication US20030004172A1, “Fused pyrimidinone matrix metalloproteinase inhibitors” (priority 2001, published 2003)

What follows are compounds tested against MMP-13CD (catalytic domain of collagenase-3) (Homo sapiens, UniProt P45452) (assay: Thiopeptolide substrate hydrolysis inhibition assay, MMP-13CD). Settings: Table I; thiopeptolide substrate, HEPES pH 7.0, 22° C.; read-out: MMP-13CD IC50.
Assay type: biochemical
Text: Thiopeptolide substrates show virtually no decomposition or hydrolysis at or below neutral pH in the absence of a matrix metalloproteinase enzyme.

IC50	SMILES
6.45 nM	Cn1c(=O)n(Cc2ccc(C#N)cc2)c(=O)c2cc(C(=O)OCc3ccccc3)sc21 [Example 313, 3-(4-Cyano-benzyl)-1-methyl-2,4-dioxo-1,2,3,4-tetrahydro-thieno[2,3-d]pyrimidine-6-carboxylic acid benzyl ester]
655 nM	Cn1c(=O)n(Cc2ccc(C(=O)O)c(O)c2)c(=O)c2cc(C(N)=O)sc21 [Example 251]
34 nM	Cn1c(=O)n(Cc2ccc(S(C)(=O)=O)cc2)c(=O)c2cc(C(=O)OCc3ccccc3)sc21 [Example 102, 3-(4-Methanesulfonyl-benzyl)-1-methyl-2,4-dioxo-1,2,3,4-tetrahydro-thieno[2,3-d]pyrimidine-6-carboxylic acid benzyl ester]
84.5 nM	Cn1c(=O)n(Cc2ccc(OC(F)(F)F)cc2)c(=O)c2cc(C(=O)OCc3ccccc3)sc21 [Example 311, 1-Methyl-2,4-dioxo-3-(4-trifluoromethoxy-benzyl)-1,2,3,4-tetrahydro-thieno[2,3-d]pyrimidine-6-carboxylic acid benzyl ester]
580 nM	COc1ccc(CNC(=O)c2cc3c(=O)n(CCSc4ccccc4)c(=O)n(C)c3s2)cc1 [Example 261]
8300 nM	Cn1c(=O)n(Cc2ccccc2CS(=O)(=O)c2ccccc2)c(=O)c2cc(C(=O)OCc3ccccc3)sc21 [Example 137, 3-(2-Benzenesulfonylmethyl-benzyl)-1-methyl-2,4-dioxo-1,2,3,4tetrahydro-thieno[2,3-d]pyrimidine-6-carboxylic acid benzyl ester]
20000 nM	COc1ccc(CNC(=O)c2cc3c(=O)n(CC(=O)C(CC(=O)OC(C)(C)C)NC(=O)OCc4ccccc4)c(=O)n(C)c3s2)cc1 (stereo not shown) [Example 277]
3.95 nM	COc1ccc(CNC(=O)c2cc3c(=O)n(Cc4ccc(C(=O)O)cc4)c(=O)n(C)c3s2)cc1 [Example 52, 4-[6-(4-Methoxy-benzylcarbamoyl)-1-methyl-2,4-dioxo-1,4-dihydro-2H-thieno[2,3-d]pyrimidin-3-ylmethyl]-benzoic acid]
30000 nM	COc1ccc(CNC(=O)c2cc3c(=O)n(Cc4ccc(C(=O)OC(C)(C)C)cc4)c(=O)n(C)c3s2)cc1OC [Example 53, 4-[6-(3,4-Dimethoxy-benzylcarbamoyl)-1-methyl-2,4-dioxo-1,4-dihydro-2H-thieno[2,3-d]pyrimidin-3-ylmethyl]-benzoic acid tert-butyl ester]
1200 nM	CCOCCOC(=O)c1cc2c(=O)n(Cc3ccccc3)c(=O)n(C)c2s1 [Example 210, 3-Benzyl-1-methyl-2,4-dioxo-1,2,3,4-tetrahydro-thieno[2,3-d]pyrimidine-6-carboxylic acid 2-ethoxy-ethyl ester]
2900 nM	COc1ccc(CNC(=O)c2cc3c(=O)n(CCNS(=O)(=O)c4ccc(Cl)cc4)c(=O)n(C)c3s2)cc1 [Example 231, 3-[2-(4-Chloro-benzenesulfonylamino)-ethyl]-1-methyl-2,4-dioxo-1,2,3,4-tetrahydro-thieno[2,3-d]pyrimidine-6-carboxylic acid 4-methoxy-benzylamide]
30000 nM	COc1ccccc1CCNC(=O)c1cc2c(=O)n(Cc3ccccc3)c(=O)n(C)c2s1 [Example 348, 3-Benzyl-1-methyl-2,4-dioxo-1,2,3,4-tetrahydro-thieno[2,3-d]pyrimidine-6-carboxylic acid[2-(2-methoxy-phenyl)-ethyl]-amide]
3100 nM	Cn1c(=O)n(Cc2ccccc2)c(=O)c2cc(C(=O)OCc3cc4ccccc4s3)sc21 [Example 304, 3-Benzyl-1-methyl-2,4-dioxo-1,2,3,4-tetrahydro-thieno[2,3-d]pyrimidine-6-carboxylic acid benzo[b]thiophen-2-ylmethyl ester]
30000 nM	CCCCCOC(=O)c1cc2c(=O)n(Cc3ccccc3)c(=O)n(C)c2s1 [Example 180, 3-Benzyl-1-methyl-2,4-dioxo-1,2,3,4-tetrahydro-thieno[2,3-d]pyrimidine-6-carboxylic acid pentyl ester]
4.2 nM	COc1ccc(CNC(=O)c2cc3c(=O)n(Cc4ccc(-c5noc(=S)[nH]5)cc4)c(=O)n(C)c3s2)cc1 [Example 222, 1-Methyl-2,4-dioxo-3-[4-(5-thioxo-4,5-dihydro-1,2,4-oxadiazol-3-yl)-benzyl]-1,2,3,4-tetrahydro-thieno[2,3-d]pyrimidine-6-carboxylic acid 4-methoxy-benzylamide]
32000 nM	CC(C)c1ccc(COC(=O)c2cc3c(=O)n(Cc4ccccc4)c(=O)n(C)c3s2)cc1 [Example 154, 3-Benzyl-1-methyl-2,4-dioxo-1,2,3,4-tetrahydro-thieno[2,3-d]pyrimidine-6-carboxylic acid 4-isopropyl-benzyl ester]
53.5 nM	COc1ccc(CNC(=O)c2cc3c(=O)n(Cc4ccc(S(=O)(=O)N(C)C)cc4)c(=O)n(C)c3s2)cc1 [Example 62, 3-(4-Dimethylsulfamoyl-benzyl)-1-methyl-2,4-dioxo-1,2,3,4-tetrahydro-thieno[2,3-d]pyrimidine-6-carboxylic acid 4-methoxy-benzylamide]

IC50	SMILES
50.5 nM	COc1cccc(CNC(=O)c2cc3c(=O)n(Cc4ccc5nonc5c4)c(=O)n(C)c3s2)c1 [Example 296]
27500 nM	CCCCC(CC)Cn1c(=O)c2cc(C(=O)NCc3ccc(OC)cc3)sc2n(C)c1=O (stereo not shown) [Example 256]
30000 nM	Cn1c(=O)n(Cc2ccccc2)c(=O)c2cc(C(=O)NCc3ccco3)sc21 [Example 354, 3-Benzyl-1-methyl-2,4-dioxo-1,2,3,4-tetrahydro-thieno[2,3-d]pyrimidine-6-carboxylic acid (furan-2-ylmethyl)-amide]
> 100000 nM	COc1ccc(CCNC(=O)c2cc3c(=O)n(Cc4ccccc4)c(=O)n(C)c3s2)cc1OC [Example 320, 3-Benzyl-1-methyl-2,4-dioxo-1,2,3,4-tetrahydro-thieno[2,3-d]pyrimidine-6-carboxylic acid[2-(3,4-dimethoxy-phenyl)-ethyl]-amide]
670 nM	Cn1c(=O)n(Cc2ccccc2)c(=O)c2cc(C(=O)NCc3ccc(C(F)(F)F)cc3)sc21 [Example 212, 3-Benzyl-1-methyl-2,4-dioxo-1,2,3,4-tetrahydro-thieno[2,3-d]pyrimidine-6-carboxylic acid 4-trifluoromethyl-benzylamide]
10000 nM	COc1cccc(CNC(=O)c2cc3c(=O)n(CC=C(C)C)c(=O)n(C)c3s2)c1 [Example 292]
74 nM	Cn1c(=O)n(CCOc2ccccc2)c(=O)c2cc(C(=O)OCc3ccccc3)sc21 [Example 132, 1-Methyl-2,4-dioxo-3-(2-phenoxy-ethyl)-1,2,3,4-tetrahydro-thieno[2,3-d]pyrimidine-6-carboxylic acid benzyl ester]
58.5 nM	COC(=O)c1ccc(Cn2c(=O)c3cc(C(=O)NCc4ccc(OC)cc4)sc3n(C)c2=O)cc1 [Example 239, 4-[6-(4-Methoxy-benzylcarbamoyl)-1-methyl-2,4-dioxo-1,4-dihydro-2H-thieno[2,3-d]pyrimidin-3-ylmethyl]-benzoic acid methyl ester]
3150 nM	COc1nc2sc(C(=O)OCc3ccccc3)cc2c(=O)n1Cc1ccccc1 [Example 88, 3-Benzyl-2-methoxy-4-oxo-3,4-dihydro-thieno[2,3-d]pyrimidine-6-carboxylic acid benzyl ester]
30000 nM	Cc1c(C(=O)OCc2ccccc2)sc2[nH]c(=O)n(Cc3ccc(Cl)c(Cl)c3)c(=O)c12 [Example 310, 3-(3,4-Dichloro-benzyl)-5-methyl-2,4-dioxo-1,2,3,4-tetrahydro-thieno[2,3-d]pyrimidine-6-carboxylic acid benzyl ester]
10000 nM	COc1ccc(CNC(=O)c2cc3c(=O)n(Cc4ccccc4)c(=O)n(C)c3s2)c(OC)c1 [Example 356, 3-Benzyl-1-methyl-2,4-dioxo-1,2,3,4-tetrahydro-thieno[2,3-d]pyrimidine-6-carboxylic acid 2,4-dimethoxy-benzylamide]
25000 nM	Cn1c(=O)n(Cc2ccc(C(=O)OC(C)(C)C)cc2)c(=O)c2cc(C(=O)NCc3ccc(S(C)(=O)=O)cc3)sc21 [Example 80, 4-[6-(4-Methanesulfonyl-benzylcarbamoyl)-1-methyl-2,4-dioxo-1,4-dihydro-2H-thieno[2,3-d]pyrimidin-3-ylmethyl]-benzoic acid tert-butyl ester]
2900 nM	Cn1c(=O)n(CCN2C(=O)c3ccccc3C2=O)c(=O)c2cc(C(=O)OCc3ccccc3)sc21 [Example 113, 3-[2-(1,3-Dioxo-1,3-dihydro-isoindol-2-yl)-ethyl]-1-methyl-2,4-dioxo-1,2,3,4-tetrahydro-thieno[2,3-d]pyrimidine-6-carboxylic acid benzyl ester]
1250 nM	COc1cccc(CNC(=O)c2cc3c(=O)n(CCS(=O)(=O)c4cccc(C(F)(F)F)c4)c(=O)n(C)c3s2)c1 [Example 244, 1-Methyl-2,4-dioxo-3-[2-(3-trifluoromethyl-benzenesulfonyl)-ethyl]-1,2,3,4-tetrahydro-thieno[2,3-d]pyrimidine-6-carboxylic acid 3-methoxy-benzylamide]
8.25 nM	COc1cccc(CNC(=O)c2cc3c(=O)n(Cc4ccc(S(=O)(=O)NC5CC5)cc4)c(=O)n(C)c3s2)c1 [Example 367, 3-(4-Cyclopropylsulfamoyl-benzyl)-1-methyl-2,4-dioxo-1,2,3,4-tetrahydro-thieno[2,3-d]pyrimidine-6-carboxylic acid 3-methoxy-benzylamide]
20000 nM	Cn1c(=O)n(Cc2ccccc2)c(=O)c2cc(C(=O)NCCc3ccccc3)sc21 [Example 214, 3-Benzyl-1-methyl-2,4-dioxo-1,2,3,4-tetrahydro-thieno[2,3-d]pyrimidine-6-carboxylic acid phenethyl-amide]
15000 nM	Cc1c(C(=O)OCc2ccccc2)sc2[nH]c(=O)n(-c3ccc([N+](=O)[O-])cc3)c(=O)c12 [Example 8, 5-Methyl-3-(4-nitro-phenyl)-2,4-dioxo-1,2,3,4-tetrahydro-thieno[2,3-d]-6-carboxylic acid benzyl ester]
